Kd data for twelve compounds are collected here from patent publication US20250011368A1, “DLL3 TARGETING PEPTIDES AND CONSTRUCTS THEREOF” (MARIANA ONCOLOGY INC., priority 2023, published 2025).

The structures appear in SMILES notation. Numbered stars: 1 amine (or outer) side, 2 acyl side, 3 side chain; on linkers, the order of the positions; unused ones are H or OH. Bridge positions count the residues as written; N and C are the ends. Square brackets hold non-standard residues; d marks the D form. Peptide text beside a SMILES is read from it. * marks the point of attachment. ξ: configuration not given here. DOTA = O=C(O)CN1CCN(CC(=O)O)CCN(CC(=O)*)CCN(CC(=O)O)CC1; Trp(7-OMe) = COc1cccc2c(C[C@H](N)C(=O)O)c[nH]c12; Trp(5-F) = N[C@@H](Cc1c[nH]c2ccc(F)cc12)C(=O)O; Trp(7-Me) = Cc1cccc2c(C[C@H](N)C(=O)O)c[nH]c12; Trp(7-aza) = N[C@@H](Cc1c[nH]c2ncccc12)C(=O)O; Phe(4-F) = N[C@@H](Cc1ccc(F)cc1)C(=O)O; 2Nal = N[C@@H](Cc1ccc2ccccc2c1)C(=O)O; C12 diacid = O=C(O)CCCCCCCCCCC(=O)*; Nva(3-Et) = CCC(CC)[C@H](N)C(=O)O; tBuAla = CC(C)(C)C[C@H](N)C(=O)O; 3Pal = N[C@@H](Cc1cccnc1)C(=O)O; Cha = N[C@@H](CC1CCCCC1)C(=O)O; NMeK = CN[C@@H](CCCCN)C(=O)O; 4Amb = NCc1ccc(C(=O)O)cc1; NMeA = CN[C@@H](C)C(=O)O; Aze = O=C(O)[C@@H]1CCN1; CH2 = C([*:1])[*:2]; ξP = O=C(O)C1CCCN1

By Kd is commonly meant the concentration at which binding is half-saturated.

The target in the experiment is T1, human DLL3 (Homo sapiens, UniProt Q9NYJ7).
T1 sequence (Q9NYJ7 27-618): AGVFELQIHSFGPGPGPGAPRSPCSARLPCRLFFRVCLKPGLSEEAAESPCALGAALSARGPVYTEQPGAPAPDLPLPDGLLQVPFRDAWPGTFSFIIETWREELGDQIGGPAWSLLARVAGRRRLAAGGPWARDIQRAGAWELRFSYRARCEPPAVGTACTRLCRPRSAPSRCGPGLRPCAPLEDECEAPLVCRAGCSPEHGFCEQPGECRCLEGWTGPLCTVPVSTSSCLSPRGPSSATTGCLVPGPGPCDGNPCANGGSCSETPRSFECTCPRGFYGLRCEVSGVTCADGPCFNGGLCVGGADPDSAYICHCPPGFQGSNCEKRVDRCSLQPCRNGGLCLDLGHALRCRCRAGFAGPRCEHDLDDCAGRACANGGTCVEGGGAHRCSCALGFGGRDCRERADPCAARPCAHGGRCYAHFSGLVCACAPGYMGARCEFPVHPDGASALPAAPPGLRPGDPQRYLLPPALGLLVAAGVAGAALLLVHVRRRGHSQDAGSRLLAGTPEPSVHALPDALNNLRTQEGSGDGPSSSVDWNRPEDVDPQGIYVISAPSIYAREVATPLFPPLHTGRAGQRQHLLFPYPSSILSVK
Kind of experiment: Affinity determination by Surface Plasmon Resonance (SPR). Type of experiment: binding. To be noted: 25° C., biotinylated human DLL3 immobilized on streptavidin sensor chip, 1:1 binding model; read-out: SPR KD. Summed up: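 Biotinylated human DLL3 was captured on a streptavidin chip with a reference surface. Compounds at several concentrations were injected at 100 μL/minute in phosphate buffer (137 mM NaCl, 2.7 mM KCl, 0.05% P20, 2% DMSO). Affinity and kinetics came from 1:1 model fits of the sensorgrams.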
Turning to `CC(=O)N[C@@H](Cc1c[nH]c2ccccc12)C(=O)N[C@H](C(=O)N[C@@H](CC(C)(C)C)C(=O)N[C@H]1CSSC[C@@H](C(=O)N[C@@H](Cc2c[nH]c3ccccc23)C(=O)N2CCC[C@H]2C(=O)N[C@H](CCCCNC(=O)CN2CCN(CC(=O)O)CCN(CC(=O)O)CCN(CC(=O)O)CC2)C(N)=O)NC(=O)[C@H](CC(=O)O)NC(=O)[C@H](Cc2cnc[nH]2)NC(=O)[C@H](Cc2ccc3ccccc3c2)NC(=O)[C@H](CC(N)=O)NC(=O)[C@H](Cc2cccnc2)NC1=O)[C@@H](C)O` [compound 289, Ac-W-T-(t-Bu-Ala)-C(3)-(3Pya)-N-(2Nal)-H-D-C(3)-W-P-[D-Lys(DOTA)]-NH2] (Ac-WT[tBuAla]C[3Pal]N[2Nal]HDCWP[dK](DOTA)-NH2; disulfide 4-10), the Kd was < 1 nM.

Take `CC[C@H](C)[C@H](NC(=O)[C@@H](NC(=O)[C@H](Cc1c[nH]c2c(C)cccc12)NC(C)=O)[C@@H](C)O)C(=O)N[C@H]1CSCSC[C@@H](C(=O)N[C@@H](Cc2c[nH]c3ccccc23)C(=O)N2CCCC2C(=O)N[C@H](CCCCNC(=O)CN2CCN(CC(=O)O)CCN(CC(=O)O)CCN(CC(=O)O)CC2)C(N)=O)NC(=O)[C@H](CC(=O)O)NC(=O)[C@H](Cc2cnc[nH]2)NC(=O)[C@H](Cc2ccc3ccccc3c2)NC(=O)[C@H](CC(N)=O)NC(=O)[C@H](CC(N)=O)NC1=O` (stereo partly drawn) [compound 330, Ac-7MeW-T-I-C(1)-N-N-(2Nal)-H-D-C(1)-W-P-[D-Lys(DOTA)]-NH2] (Ac-[Trp(7-Me)]TICNN[2Nal]HDCW[ξP][dK](DOTA)-NH2; linker 4-10 via CH2): the Kd is < 1 nM.

With `CC[C@H](C)[C@H](NC(=O)[C@@H](NC(=O)[C@H](Cc1c[nH]c2ccccc12)NC(C)=O)[C@@H](C)O)C(=O)N[C@H]1CSSC[C@@H](C(=O)N[C@@H](Cc2c[nH]c3ccccc23)C(=O)N(C)[C@@H](C)C(=O)N[C@@H](CCCCNC(=O)CN2CCN(CC(=O)O)CCN(CC(=O)O)CCN(CC(=O)O)CC2)C(N)=O)NC(=O)[C@H](CC(=O)O)NC(=O)[C@H](Cc2c[nH]cn2)NC(=O)[C@H](Cc2c[nH]c3ccccc23)NC(=O)[C@H](CC(N)=O)NC(=O)[C@H](CC(N)=O)NC1=O` [compound 229, Ac-W-T-I-C(3)-N-N-W-H-D-C(3)-W-NmeA-[D-Lys(DOTA)]-NH2] (Ac-WTICNNWHDCW[NMeA]K(DOTA)-NH2; disulfide 4-10), the Kd was in the range of 10 to 100 nM.

For `CC[C@H](C)[C@H](NC(=O)[C@@H](NC(=O)[C@H](Cc1c[nH]c2ccccc12)NC(C)=O)[C@@H](C)O)C(=O)N[C@H]1CSSC[C@@H](C(=O)N[C@@H](Cc2c[nH]c3c(OC)cccc23)C(=O)N2CCC[C@H]2C(=O)N[C@H](CCCCNC(=O)CN2CCN(CC(=O)O)CCN(CC(=O)O)CCN(CC(=O)O)CC2)C(N)=O)NC(=O)[C@H](CC(=O)O)NC(=O)[C@H](Cc2cnc[nH]2)NC(=O)[C@H](Cc2c[nH]c3ccccc23)NC(=O)[C@H](CC(N)=O)NC(=O)[C@H](CC(N)=O)NC1=O` [compound 299, Ac-W-T-I-C(3)-N-N-W-H-D-C(3)-(7-MeO-W)-P-[D-Lys(DOTA)]-NH2] (Ac-WTICNNWHDC[Trp(7-OMe)]P[dK](DOTA)-NH2; disulfide 4-10), the Kd is < 1 nM.

As to `CC(=O)N[C@@H](Cc1c[nH]c2ccc(F)cc12)C(=O)N[C@H](C(=O)N[C@@H](CC1CCCCC1)C(=O)N[C@H]1CSSC[C@@H](C(=O)N[C@@H](Cc2c[nH]c3ncccc23)C(=O)N2CC[C@H]2C(=O)N[C@H](CCCCNC(=O)CN2CCN(CC(=O)O)CCN(CC(=O)O)CCN(CC(=O)O)CC2)C(N)=O)NC(=O)[C@H](CC(=O)O)NC(=O)[C@H](Cc2cnc[nH]2)NC(=O)[C@H](Cc2ccc(F)cc2)NC(=O)[C@H](CC(N)=O)NC(=O)[C@H](CC(N)=O)NC1=O)[C@@H](C)O` [compound 125, Ac-(5Fluoro-W)-T-(CHA)-C(3)-N-N-(4Fluoro-F)-H-D-C(3)-(7Aza-W)-(Aze)-[D-Lys(DOTA)]-NH2] (Ac-[Trp(5-F)]T[Cha]CNN[Phe(4-F)]HDC[Trp(7-aza)][Aze][dK](DOTA)-NH2; disulfide 4-10), the Kd was 1 to 10 nM.

On to `CC[C@H](C)[C@H](NC(=O)[C@@H](NC(=O)[C@H](Cc1c[nH]c2c(C)cccc12)NC(C)=O)[C@@H](C)O)C(=O)N[C@H]1CSSC[C@@H](C(=O)N[C@@H](Cc2c[nH]c3ccccc23)C(=O)N2CCC[C@H]2C(=O)N[C@H](CCCCNC(=O)CN2CCN(CC(=O)O)CCN(CC(=O)O)CCN(CC(=O)O)CC2)C(N)=O)NC(=O)[C@H](CC(=O)O)NC(=O)[C@H](Cc2cnc[nH]2)NC(=O)[C@H](Cc2ccc3ccccc3c2)NC(=O)[C@H](CC(N)=O)NC(=O)[C@H](CC(N)=O)NC1=O` [compound 206, Ac-(7-Me-W)-T-I-C(3)-N-N-(2Nal)-H-D-C(3)-W-P-[D-Lys(DOTA)]-NH2] (Ac-[Trp(7-Me)]TICNN[2Nal]HDCWP[dK](DOTA)-NH2; disulfide 4-10), for which the Kd is < 1 nM.

Consider `CC[C@H](C)[C@H](NC(=O)[C@@H](NC(=O)[C@H](Cc1c[nH]c2ccccc12)NC(C)=O)[C@@H](C)O)C(=O)N[C@H]1CSSC[C@@H](C(=O)N[C@@H](Cc2c[nH]c3ccccc23)C(=O)N(C)[C@@H](CCCCNC(=O)CN2CCN(CC(=O)O)CCN(CC(=O)O)CCN(CC(=O)O)CC2)C(N)=O)NC(=O)[C@H](CC(=O)O)NC(=O)[C@H](Cc2cnc[nH]2)NC(=O)[C@H](Cc2ccc3ccccc3c2)NC(=O)[C@H](CC(N)=O)NC(=O)[C@H](CC(N)=O)NC1=O` [compound 352, Ac-W-T-I-C(3)-N-N-(2Nal)-H-D-C(3)-W-[NmeK(DOTA)]-NH2] (Ac-WTICNN[2Nal]HDCW[NMeK](DOTA)-NH2; disulfide 4-10), for which the Kd is < 1 nM.

Regarding `CC[C@H](C)[C@H](NC(=O)[C@@H](NC(=O)[C@H](Cc1c[nH]c2ccccc12)NC(C)=O)[C@@H](C)O)C(=O)N[C@H]1CSSC[C@@H](C(=O)N[C@@H](Cc2c[nH]c3ccccc23)C(=O)N2CCC[C@H]2C(=O)NCc2ccc(C(=O)N[C@H](CCCCNC(=O)CN3CCN(CC(=O)O)CCN(CC(=O)O)CCN(CC(=O)O)CC3)C(N)=O)cc2)NC(=O)[C@H](CC(=O)O)NC(=O)[C@H](Cc2c[nH]cn2)NC(=O)[C@H](Cc2ccc3ccccc3c2)NC(=O)[C@H](CC(N)=O)NC(=O)[C@H](CC(N)=O)NC1=O` [compound 374, Ac-W-T-I-C(3)-N-N-(2Nal)-H-D-C(3)-W-P-(AMBX)-[D-Lys(DOTA)]-NH2] (Ac-WTICNN[2Nal]HDCWP[4Amb][dK](DOTA)-NH2; disulfide 4-10), the Kd was < 1 nM.

Turning to `CC[C@H](C)[C@H](NC(=O)[C@@H](NC(=O)[C@H](Cc1c[nH]c2ccccc12)NC(C)=O)[C@@H](C)O)C(=O)N[C@H]1CSSC[C@@H](C(=O)N[C@@H](Cc2c[nH]c3ccccc23)C(=O)N2CCC[C@H]2C(=O)N[C@H](CCCCNC(=O)CN2CCN(CC(=O)O)CCN(CC(=O)O)CCN(CC(=O)O)CC2)C(N)=O)NC(=O)[C@H](CC(=O)O)NC(=O)[C@H](Cc2cccnc2)NC(=O)[C@H](Cc2ccc3ccccc3c2)NC(=O)[C@H](CC(N)=O)NC(=O)[C@H](CC(N)=O)NC1=O` [compound 366, Ac-W-T-I-C(3)-N-N-(2Nal)-(3Pya)-D-C(3)-W-P-[D-Lys(DOTA)]-NH2] (Ac-WTICNN[2Nal][3Pal]DCWP[dK](DOTA)-NH2; disulfide 4-10), the dissociation constant (Kd) is < 1 nM.

As for `CCC(CC)[C@H](NC(=O)[C@@H](NC(=O)[C@H](Cc1c[nH]c2ccccc12)NC(C)=O)[C@@H](C)O)C(=O)N[C@H]1CSSC[C@@H](C(=O)N[C@@H](Cc2c[nH]c3ncccc23)C(=O)N2CCC[C@H]2C(=O)N[C@H](CCCCNC(=O)CN2CCN(CC(=O)O)CCN(CC(=O)O)CCN(CC(=O)O)CC2)C(N)=O)NC(=O)[C@H](CC(=O)O)NC(=O)[C@H](Cc2cnc[nH]2)NC(=O)[C@H](Cc2ccc3ccccc3c2)NC(=O)[C@H](CC(N)=O)NC(=O)[C@H](C)NC1=O` [compound 196, Ac-W-T-(Env)-C(3)-A-N-(2Nal)-H-D-C(3)-(7-Aza-W)-P-[D-Lys(DOTA)]-NH2] (Ac-WT[Nva(3-Et)]CAN[2Nal]HDC[Trp(7-aza)]P[dK](DOTA)-NH2; disulfide 4-10), the dissociation constant Kd is < 1 nM.

For `CC[C@H](C)[C@H](NC(=O)[C@@H](NC(=O)[C@H](Cc1c[nH]c2ccccc12)NC(=O)CCCCCCCCCCC(=O)O)[C@@H](C)O)C(=O)N[C@H]1CSSC[C@@H](C(=O)N[C@@H](Cc2c[nH]c3ccccc23)C(=O)N2CCC[C@H]2C(=O)N[C@H](CCCCNC(=O)CN2CCN(CC(=O)O)CCN(CC(=O)O)CCN(CC(=O)O)CC2)C(N)=O)NC(=O)[C@H](CC(=O)O)NC(=O)[C@H](Cc2cnc[nH]2)NC(=O)[C@H](Cc2c[nH]c3ccccc23)NC(=O)[C@H](CC(N)=O)NC(=O)[C@H](CC(N)=O)NC1=O` [compound 349, C12OH-W-T-I-C(3)-N-N-W-H-D-C(3)-W-P-[D-Lys(DOTA)]-NH2] ({C12 diacid}-WTICNNWHDCWP[dK](DOTA)-NH2; disulfide 4-10), the Kd was 1 to 10 nM.

On to `CC[C@H](C)[C@H](NC(=O)[C@@H](NC(=O)[C@H](Cc1c[nH]c2ccccc12)NC(C)=O)[C@@H](C)O)C(=O)N[C@H]1CSSC[C@@H](C(=O)N[C@@H](Cc2c[nH]c3ccccc23)C(=O)N2CCC[C@H]2C(=O)N[C@H](CCCCNC(=O)CN2CCN(CC(=O)O)CCN(CC(=O)O)CCN(CC(=O)O)CC2)C(N)=O)NC(=O)[C@H](CC(=O)O)NC(=O)[C@H](CCC(=O)O)NC(=O)[C@H](Cc2c[nH]c3ccccc23)NC(=O)[C@H](CCC(=O)O)NC(=O)[C@H](CC(N)=O)NC1=O` [compound 276, Ac-W-T-I-C(3)-N-Glu-W-Glu-D-C(3)-W-P-[D-Lys(DOTA)]-NH2] (Ac-WTICNEWEDCWP[dK](DOTA)-NH2; disulfide 4-10), for which the Kd was in the range of 10 to 100 nM.
